{
  "source": "paper PMC5218480",
  "about": "(PLoS ONE, 2017)",
  "system": "MV-4-11 cells",
  "assay": "Gene expression microarray analysis (Affymetrix PrimeView) and GSEA",
  "type": "cell-based, human",
  "set-up": "RFU PODN (11730768_x_at) / Fold change /veh PODN (11730768_x_at) / RFU LINC00158 (11744669_a_at) / Fold change /veh LINC00158 (11744669_a_at) / RFU DUSP10 (11751237_a_at) / Fold change /veh DUSP10 (11751237_a_at) / RFU ID3 (11757404_x_at) / Fold change /veh ID3 (11757404_x_at) / RFU PLEKHG5 (11737974_s_at) / Fold change /veh PLEKHG5 (11737974_s_at) / RFU LRRC4B (11730491_at) / Fold change /veh LRRC4B (11730491_at) / RFU GIMAP4 (11747438_a_at) / Fold change /veh GIMAP4 (11747438_a_at) / RFU KRT8 (11758183_x_at) / Fold change /veh KRT8 (11758183_x_at) / RFU CNN1 (11734310_a_at) / Fold change /veh CNN1 (11734310_a_at) / RFU VPS37D (11726825_at) / Fold change /veh VPS37D (11726825_at) / RFU C10orf10 (11716522_x_at) / Fold change /veh C10orf10 (11716522_x_at) / RFU KIR2DL2 /// KIR2DL4 /// KIR2DL5A /// KIR2DL5B /// KIR2DS1 /// KIR2DS2 /// KIR2DS3 /// KIR2DS4 /// KIR3DL3 /// KIR3DL3 /// KIR3DS1 (11738374_at) / Fold change /veh KIR2DL2 /// KIR2DL4 /// KIR2DL5A /// KIR2DL5B /// KIR2DS1 /// KIR2DS2 /// KIR2DS3 /// KIR2DS4 /// KIR3DL3 /// KIR3DL3 /// KIR3DS1 (11738374_at) / RFU C1QL1 (11718748_at) / Fold change /veh C1QL1 (11718748_at) / RFU TMPRSS4 (11747572_a_at) / Fold change /veh TMPRSS4 (11747572_a_at) / RFU HAMP (11756126_x_at) / Fold change /veh HAMP (11756126_x_at) / RFU RNFT2 (11725882_a_at) / Fold change /veh RNFT2 (11725882_a_at) / RFU NR4A2 (11747474_a_at) / Fold change /veh NR4A2 (11747474_a_at) / RFU ABCC12 (11746883_a_at) / Fold change /veh ABCC12 (11746883_a_at) / RFU TMEM136 (11760407_x_at) / Fold change /veh TMEM136 (11760407_x_at) / RFU CLDN22 /// WWC2 (11732394_at) / Fold change /veh CLDN22 /// WWC2 (11732394_at) / RFU HLA-DPB1 (11760878_x_at) / Fold change /veh HLA-DPB1 (11760878_x_at) / RFU SPINT1 (11716480_a_at) / Fold change /veh SPINT1 (11716480_a_at) / RFU GAP43 (11754022_s_at) / Fold change /veh GAP43 (11754022_s_at) / RFU A4GNT (11735810_at) / Fold change /veh A4GNT (11735810_at) / RFU PRB3 (11715151_x_at) / Fold change /veh PRB3 (11715151_x_at) / RFU TUBB4B (11761932_at) / Fold change /veh TUBB4B (11761932_at) / RFU CAPN14 (11732068_a_at) / Fold change /veh CAPN14 (11732068_a_at) / RFU TMCC2 (11721928_a_at) / Fold change /veh TMCC2 (11721928_a_at) / RFU IRGQ (11745062_a_at) / Fold change /veh IRGQ (11745062_a_at) / RFU FAM174B (11720279_a_at) / Fold change /veh FAM174B (11720279_a_at) / RFU TMPRSS4 (11748680_a_at) / Fold change /veh TMPRSS4 (11748680_a_at) / RFU FAM212B (11763350_a_at) / Fold change /veh FAM212B (11763350_a_at) / RFU PLEKHG5 (11743358_a_at) / Fold change /veh PLEKHG5 (11743358_a_at) / RFU ZSCAN30 (11745921_a_at) / Fold change /veh ZSCAN30 (11745921_a_at) / RFU CMKLR1 (11741424_a_at) / Fold change /veh CMKLR1 (11741424_a_at) / RFU LOC101060620 /// MAPK8IP1 (11723275_at) / Fold change /veh LOC101060620 /// MAPK8IP1 (11723275_at) / RFU SPTSSB (11747773_x_at) / Fold change /veh SPTSSB (11747773_x_at) / RFU PRSS12 (11739890_at) / Fold change /veh PRSS12 (11739890_at) / RFU BIN1 (11741810_x_at) / Fold change /veh BIN1 (11741810_x_at) / RFU WNT11 (11732464_a_at) / Fold change /veh WNT11 (11732464_a_at) / RFU C10orf10 (11716521_a_at) / Fold change /veh C10orf10 (11716521_a_at) / RFU C5orf56 (11738089_at) / Fold change /veh C5orf56 (11738089_at) / RFU CYB561 (11721691_x_at) / Fold change /veh CYB561 (11721691_x_at) / RFU ANKRD19P (11752326_a_at) / Fold change /veh ANKRD19P (11752326_a_at) / RFU OR2T12 /// OR2T33 /// OR2T8 (11738714_s_at) / Fold change /veh OR2T12 /// OR2T33 /// OR2T8 (11738714_s_at) / RFU VCAN (11748164_a_at) / Fold change /veh VCAN (11748164_a_at) / RFU JSRP1 (11732532_at) / Fold change /veh JSRP1 (11732532_at) / RFU KRTAP10-11 (11738290_x_at) / Fold change /veh KRTAP10-11 (11738290_x_at) / RFU MYO3A (11730013_a_at) / Fold change /veh MYO3A (11730013_a_at) / RFU EBF3 (11725865_a_at) / Fold change /veh EBF3 (11725865_a_at) / RFU CAMK2N1 (11719241_x_at) / Fold change /veh CAMK2N1 (11719241_x_at) / RFU C5orf56 (11738088_a_at) / Fold change /veh C5orf56 (11738088_a_at) / RFU OLFML3 (11715873_a_at) / Fold change /veh OLFML3 (11715873_a_at) / RFU LOC100653217 /// NTM (11731650_a_at) / Fold change /veh LOC100653217 /// NTM (11731650_a_at) / RFU MAPK11 (11762145_a_at) / Fold change /veh MAPK11 (11762145_a_at) / RFU FIZ1 (11724087_x_at) / Fold change /veh FIZ1 (11724087_x_at) / RFU OASL (11726364_x_at) / Fold change /veh OASL (11726364_x_at) / RFU SOX15 (11748057_x_at) / Fold change /veh SOX15 (11748057_x_at) / RFU CD79A (11719716_a_at) / Fold change /veh CD79A (11719716_a_at) / RFU HIST1H1D (11736915_at) / Fold change /veh HIST1H1D (11736915_at) / RFU CASKIN2 (11723855_a_at) / Fold change /veh CASKIN2 (11723855_a_at) / RFU LOC730098 (11760151_x_at) / Fold change /veh LOC730098 (11760151_x_at) / RFU OR4N2 (11742367_at) / Fold change /veh OR4N2 (11742367_at) / RFU PRRT2 (11749266_a_at) / Fold change /veh PRRT2 (11749266_a_at) / RFU SNX32 (11753110_a_at) / Fold change /veh SNX32 (11753110_a_at) / RFU CDHR5 (11726645_a_at) / Fold change /veh CDHR5 (11726645_a_at) / RFU RCAN1 (11760418_a_at) / Fold change /veh RCAN1 (11760418_a_at) / RFU FAM167A (11723789_a_at) / Fold change /veh FAM167A (11723789_a_at) / RFU FAM26E (11764081_at) / Fold change /veh FAM26E (11764081_at) / RFU ISYNA1 (11749810_s_at) / Fold change /veh ISYNA1 (11749810_s_at) / RFU ACY1 (11761880_at) / Fold change /veh ACY1 (11761880_at) / RFU 11764098_at / Fold change /veh 11764098_at / RFU SAMD14 (11745864_x_at) / Fold change /veh SAMD14 (11745864_x_at) / RFU NPB (11741838_a_at) / Fold change /veh NPB (11741838_a_at) / RFU TMPRSS6 (11731388_a_at) / Fold change /veh TMPRSS6 (11731388_a_at) / RFU KRTAP10-2 (11738614_at) / Fold change /veh KRTAP10-2 (11738614_at) / RFU ARHGAP8 /// PRR5-ARHGAP8 (11727945_x_at) / Fold change /veh ARHGAP8 /// PRR5-ARHGAP8 (11727945_x_at) / RFU KRTAP5-7 /// NADSYN1 (11734609_at) / Fold change /veh KRTAP5-7 /// NADSYN1 (11734609_at) / RFU RASL12 (11751679_a_at) / Fold change /veh RASL12 (11751679_a_at) / RFU CDKN2B (11736163_a_at) / Fold change /veh CDKN2B (11736163_a_at) / RFU PRF1 (11729649_at) / Fold change /veh PRF1 (11729649_at) / RFU, ZNF638 /// ZNF638-IT1 / Fold change vs veh, ZNF638 /// ZNF638-IT1 / RFU, PANK3 / Fold change vs veh, PANK3 / RFU, SH3YL1 / Fold change vs veh, SH3YL1 / RFU, ZEB2 / Fold change vs veh, ZEB2 / RFU, NRIP1 / Fold change vs veh, NRIP1 / RFU, PTTG1IP / Fold change vs veh, PTTG1IP / RFU, CAPN2 / Fold change vs veh, CAPN2 / RFU, MED14 / Fold change vs veh, MED14 / RFU, SNORA58 / Fold change vs veh, SNORA58 / RFU, C1orf63 / Fold change vs veh, C1orf63 / RFU, LRRFIP1 / Fold change vs veh, LRRFIP1 / RFU, NDUFAF7 / Fold change vs veh, NDUFAF7 / RFU, SLC12A2 / Fold change vs veh, SLC12A2 / RFU, IBTK / Fold change vs veh, IBTK / RFU, ESF1 / Fold change vs veh, ESF1 / Fold change vs veh, TMEM50B / RFU, TAOK1 / Fold change vs veh, TAOK1 / RFU, ACBD3 / Fold change vs veh, ACBD3 / RFU, TMA16 / Fold change vs veh, TMA16 / RFU, RWDD3 / Fold change vs veh, RWDD3 / RFU, BCAT1 / Fold change vs veh, BCAT1 / RFU, EDEM3 / Fold change vs veh, EDEM3 / RFU, TMEM33 / Fold change vs veh, TMEM33 / RFU, WDR75 / Fold change vs veh, WDR75 / RFU, AHCTF1 / Fold change vs veh, AHCTF1 / RFU, TFRC / Fold change vs veh, TFRC / RFU, ZDHHC17 / Fold change vs veh, ZDHHC17 / RFU, NOM1 / Fold change vs veh, NOM1 / RFU, ARL8B / Fold change vs veh, ARL8B / RFU, ZBTB11 / Fold change vs veh, ZBTB11 / RFU, TAMM41 / Fold change vs veh, TAMM41 / RFU, KIAA1704 /// LOC100996395 / Fold change vs veh, KIAA1704 /// LOC100996395 / RFU, ING1 / Fold change vs veh, ING1 / RFU, TRMT61B / Fold change vs veh, TRMT61B / RFU, FUBP3 / Fold change vs veh, FUBP3 / RFU, TP53 / Fold change vs veh, TP53 / RFU, TNKS2 / Fold change vs veh, TNKS2 / RFU, ZFP14 / Fold change vs veh, ZFP14 / RFU, ACTR2 / Fold change vs veh, ACTR2 / RFU, PPP3R1 / Fold change vs veh, PPP3R1 / RFU, PIK3R1 / Fold change vs veh, PIK3R1 / RFU, HNRNPA1 / Fold change vs veh, HNRNPA1 / RFU, RNF170 / Fold change vs veh, RNF170 / RFU, ZNF28 / Fold change vs veh, ZNF28 / RFU, RNGTT / Fold change vs veh, RNGTT / RFU, OGT / Fold change vs veh, OGT / RFU, BRD1 / Fold change vs veh, BRD1 / RFU, MARS / Fold change vs veh, MARS / RFU, ZNF655 / Fold change vs veh, ZNF655 / RFU, FAHD1 / Fold change vs veh, FAHD1 / RFU, BDP1 / Fold change vs veh, BDP1 / RFU, LRRCC1 / Fold change vs veh, LRRCC1 / RFU, ARID1A / Fold change vs veh, ARID1A / RFU, ZNF146 / Fold change vs veh, ZNF146 / RFU, ZNF330 / Fold change vs veh, ZNF330 / RFU, GPN3 / Fold change vs veh, GPN3 / RFU, C9orf123 / Fold change vs veh, C9orf123 / RFU, N4BP2L2 / Fold change vs veh, N4BP2L2 / RFU, ARFIP1 / Fold change vs veh, ARFIP1 / RFU, FAM179B / Fold change vs veh, FAM179B / RFU, BCL10 / Fold change vs veh, BCL10 / RFU, UHRF1BP1L / Fold change vs veh, UHRF1BP1L / RFU, BET1 / Fold change vs veh, BET1 / RFU, CNOT2 / Fold change vs veh, CNOT2 / RFU, ZNF268 / Fold change vs veh, ZNF268 / Fold change vs veh, ZNF507 / RFU, DGCR2 / Fold change vs veh, DGCR2 / RFU, WDSUB1 / Fold change vs veh, WDSUB1 / Fold change vs veh, HSP90B1 /// MIR3652 / RFU, ADSS / Fold change vs veh, ADSS / RFU, GK / Fold change vs veh, GK / RFU, ZNF148 / Fold change vs veh, ZNF148 / RFU, TAF9 / Fold change vs veh, TAF9 / RFU, SLC1A5 / Fold change vs veh, SLC1A5 / RFU, SLMO2 / Fold change vs veh, SLMO2 / RFU, ABCC4 / Fold change vs veh, ABCC4 / RFU, LOC101060439 /// RAP1B / Fold change vs veh, LOC101060439 /// RAP1B / RFU, RFX7 / Fold change vs veh, RFX7 / RFU, GTPBP10 / Fold change vs veh, GTPBP10 / RFU, CNEP1R1 / Fold change vs veh, CNEP1R1 / RFU, BIVM-ERCC5 /// ERCC5 / Fold change vs veh, BIVM-ERCC5 /// ERCC5 / RFU, ILF3 / Fold change vs veh, ILF3 / RFU 11762660_at / Fold change /veh 11762660_at / RFU VCAN (11757783_s_at) / Fold change /veh VCAN (11757783_s_at) / RFU DDX43 (11728927_at) / Fold change /veh DDX43 (11728927_at) / RFU KRT8 (11758188_x_at) / Fold change /veh KRT8 (11758188_x_at) / RFU NKD1 (11759106_at) / Fold change /veh NKD1 (11759106_at) / RFU SRD5A1 (11742802_a_at) / Fold change /veh SRD5A1 (11742802_a_at) / RFU TPSAB1 /// TPSB2 (11721975_s_at) / Fold change /veh TPSAB1 /// TPSB2 (11721975_s_at) / RFU GSTM3 (11746129_a_at) / Fold change /veh GSTM3 (11746129_a_at) / RFU IL23R (11737362_x_at) / Fold change /veh IL23R (11737362_x_at) / RFU TMEM51 (11727254_a_at) / Fold change /veh TMEM51 (11727254_a_at) / RFU PIWIL2 (11732686_x_at) / Fold change /veh PIWIL2 (11732686_x_at) / RFU ORM1 (11744905_x_at) / Fold change /veh ORM1 (11744905_x_at) / RFU CCDC152 (11743942_at) / Fold change /veh CCDC152 (11743942_at) / RFU ECM1 (11717891_a_at) / Fold change /veh ECM1 (11717891_a_at) / RFU IL23R (11748794_a_at) / Fold change /veh IL23R (11748794_a_at) / RFU TNFAIP8L3 (11732012_x_at) / Fold change /veh TNFAIP8L3 (11732012_x_at) / RFU MBOAT4 (11741988_at) / Fold change /veh MBOAT4 (11741988_at) / RFU 11764193_at / Fold change /veh 11764193_at / RFU TMEM53 (11763286_at) / Fold change /veh TMEM53 (11763286_at) / RFU MAGEB2 (11727129_at) / Fold change /veh MAGEB2 (11727129_at) / RFU TMEM200A (11744735_a_at) / Fold change /veh TMEM200A (11744735_a_at) / RFU CCDC152 (11751479_a_at) / Fold change /veh CCDC152 (11751479_a_at) / RFU FAM211A (11726209_a_at) / Fold change /veh FAM211A (11726209_a_at) / RFU RGS16 (11746705_a_at) / Fold change /veh RGS16 (11746705_a_at) / RFU VCAN (11755009_s_at) / Fold change /veh VCAN (11755009_s_at) / RFU RHOB (11743442_s_at) / Fold change /veh RHOB (11743442_s_at) / RFU RGS16 (11720943_a_at) / Fold change /veh RGS16 (11720943_a_at) / RFU RGS16 (11720944_at) / Fold change /veh RGS16 (11720944_at) / RFU, VPS4B / Fold change vs veh, VPS4B / RFU, CREB1 / Fold change vs veh, CREB1 / RFU, DNAJC13 / Fold change vs veh, DNAJC13 / RFU, GNAQ / Fold change vs veh, GNAQ / RFU, CDK5R1 / Fold change vs veh, CDK5R1 / RFU, ZRANB3 / Fold change vs veh, ZRANB3 / RFU, CUL4A / Fold change vs veh, CUL4A / RFU, CCNY / Fold change vs veh, CCNY / RFU, UFL1 / Fold change vs veh, UFL1 / RFU, COG3 / Fold change vs veh, COG3 / RFU, DIAPH2 / Fold change vs veh, DIAPH2 / RFU, SKA2 / Fold change vs veh, SKA2 / RFU, AFF3 / Fold change vs veh, AFF3 / RFU, LMF1 / Fold change vs veh, LMF1 / RFU, IPO11 / Fold change vs veh, IPO11 / RFU, DFFB / Fold change vs veh, DFFB / RFU, FOXP1 / Fold change vs veh, FOXP1 / RFU, CARD8 / Fold change vs veh, CARD8 / RFU, STRN3 / Fold change vs veh, STRN3 / RFU, ADK / Fold change vs veh, ADK / RFU, RASSF2 / Fold change vs veh, RASSF2 / RFU, WIPF1 / Fold change vs veh, WIPF1 / RFU, LARP1B / Fold change vs veh, LARP1B / RFU, RASA1 / Fold change vs veh, RASA1 / RFU, RB1 / Fold change vs veh, RB1 / RFU, PPFIA1 / Fold change vs veh, PPFIA1 / RFU, MAT2A / Fold change vs veh, MAT2A / RFU, CCT5 / Fold change vs veh, CCT5 / RFU, WDR92 / Fold change vs veh, WDR92 / RFU, CUX1 / Fold change vs veh, CUX1 / RFU, TTC7A / Fold change vs veh, TTC7A / RFU, TMEM135 / Fold change vs veh, TMEM135 / RFU, DEPTOR / Fold change vs veh, DEPTOR / RFU, CPM / Fold change vs veh, CPM / RFU, DNAJB6 / Fold change vs veh, DNAJB6 / RFU, CACNA2D3 / Fold change vs veh, CACNA2D3 / RFU, DTX4 / Fold change vs veh, DTX4 / RFU, TFCP2 / Fold change vs veh, TFCP2 / RFU, GMCL1 /// GMCL1P1 / Fold change vs veh, GMCL1 /// GMCL1P1 / RFU, AEBP2 / Fold change vs veh, AEBP2 / RFU, SNHG1 /// SNORD22 /// SNORD25 /// SNORD26 /// SNORD27 /// SNORD28 /// SNORD29 /// SNORD31 / Fold change vs veh, SNHG1 /// SNORD22 /// SNORD25 /// SNORD26 /// SNORD27 /// SNORD28 /// SNORD29 /// SNORD31 / Fold change (Aza/veh), C12orf56 (ProbeSet 11735607_a_at) / Fold change (ACY-1035/veh), C12orf56 (ProbeSet 11735607_a_at) / Fold change (Aza/veh), FGFR1OP (ProbeSet 11751329_s_at) / Fold change (ACY-1035/veh), FGFR1OP (ProbeSet 11751329_s_at) / Fold change (Aza/veh), VPS36 (ProbeSet 11739960_a_at) / Fold change (ACY-1035/veh), VPS36 (ProbeSet 11739960_a_at) / RFU SYPL1 (11715823_x_at) / Fold change /veh SYPL1 (11715823_x_at) / RFU IGFBP7 (11715501_s_at) / Fold change /veh IGFBP7 (11715501_s_at) / RFU REEP3 (11722064_at) / Fold change /veh REEP3 (11722064_at) / RFU IGLL1 (11728026_x_at) / Fold change /veh IGLL1 (11728026_x_at): dose or concentration left out as unconfirmed",
  "settings": "ProbeSet 11728676_at; LIST B",
  "data": [
    {"smiles": "Nc1ncn([C@@H]2O[C@H](CO)[C@@H](O)[C@H]2O)c(=O)n1", "note": "[azacitidine]", "values": [
      {"measurement": "RFU, MED14", "result": 205.61, "unit": "RFU"}
    ]}
  ]
}
